Results: patent US20230190835A1, “PROBIOTIC BACTERIA FOR TREATING ALZHEIMER'S DISEASE” (RRW B.V., priority 2020, published 2023)

Tested on: C. elegans nematode strain with inducible amyloid-β accumulation (CL4176)
Assay: Alzheimer's disease paralysis assay
Format: in vivo
Source text: The effect of probiotic bacteria and their combinations with other active agents has been studied in C. elegans nematode strains as an animal model for amyloidoses such as Alzheimer's disease. These strains accumulate amyloid-β peptides that form plaques in the nematodes and lead to paralysis of the animals. In certain strains, such as strain CL4176, Aβ accumulation occurs only in response to heat shock. Thus, the Alzheimer's disease pattern is inducible in these strains. The number of paralyzed nematodes after a certain period of time following induction of Aβ accumulation indicates the extent of Alzheimer's disease. Thus, the effect of certain substances to which the nematodes are exposed on the number of paralyzed animals is a measure of the anti-Alzheimer effect of these substances.
Nematodes of strain CL4176 were synchronized at the young larval stage and allowed to grow to the L4 stage on normal growth medium for 72 h at 16° C. The probiotic bacteria to be tested were added to the growth medium. Then the nematodes were exposed to the test substance and the temperature was increased to 25° C. This heat shock induced Aβ accumulation, simulating the onset of Alzheimer's disease. Approximately every 24 h, the number of animals that were still mobile and those that were paralyzed as a result of Aβ accumulation was determined.
C. elegans of strain CL4176 were exposed to a mixture of different probiotic bacteria at a bacterial concentration of 50 cfu (colony-forming units) in this assay. The bacterial mixture contained the following bacterial species: Enterococcus faecium, Bifidobacterium longum, Streptococcus thermophilus, Lactobacillus acidophilus, Lactobacillus plantarum and Bifidobacterium breve. […] In another series of tests, the nematodes were additionally treated with cannabidiol (CBD).
The two probiotic bacterial strains Lactobacillus rhamnosus and Lactobacillus plantarum were allowed to grow to stationary phase and mixed with the normal diet of nematodes (OP50) E. coli bacteria). C. elegans of strain CL4176 at L4 larval stage were exposed to the probiotic bacteria and other active agents in the induction of Aβ accumulation by increasing the temperature to 25° C. The number of paralyzed animals was checked every 24 h and determined after 96 h.
In the described Alzheimer's disease animal model assay, the effect of the bacterial strain Pseudomonas fluorescens was tested. Upon induction of Aβ accumulation by increasing temperature to 25° C., nematodes were exposed to Pseudomonas fluorescens bacteria, curcumin or CBD, or a combination of the bacteria and the active agent. The number of paralyzed nematodes was determined 96 h after induction of Aβ accumulation.

With `C=C(C)[C@@H]1CCC(C)=C[C@H]1c1c(O)cc(CCCCC)cc1O` [CBD, cannabidiol] the “number of paralyzed nematodes” value (0.08% (v/v), 96 h, FIGS. 3 and 4) was “reduced”, the “paralytic nematodes, individually” value (Example 3, 96 h after induction of Aβ accumulation, FIGS. 7 and 8) was “reduction in paralytic nematodes” and the “effect of combination with Pseudomonas fluorescens” value (combination of Pseudomonas fluorescens and active agent, 96 h after induction of Aβ accumulation, FIGS. 7 and 8) was “strong synergistic increase in effect”. For the same compound, the “effect of additional treatment with the active agent on the effect of the probiotic bacterial mixture” value (in combination with probiotic bacterial mixture, 72 h after induction of Aβ accumulation, FIG. 1) was “significantly increased the effect of probiotic bacteria”.
In the case of Lactobacillus plantarum, the “paralysis due to Aβ accumulation” value (bacteria grown to stationary phase, mixed with OP50 E. coli diet, 96 h, FIGS. 3 and 4) is reported as “reduction in paralysis” and the “prevention of the effects of Aβ accumulation by combination of bacterium with active agents” value (stationary-phase bacteria combined with curcumin, CBD, THCA or combinations thereof, 96 h, FIGS. 3 and 4) is reported as “significant to synergistic prevention of the effects of Aβ accumulation”.
In the case of `CCCCCc1cc2c(c(O)c1C(=O)O)[C@@H]1C=C(C)CC[C@H]1C(C)(C)O2` [THCA, delta-9-tetrahydrocannabinolic acid], the “number of paralyzed nematodes” value (60 μl, 96 h, FIGS. 3 and 4) is reported as “reduced”.
